Results as given in patent publication US20170008888A1 (KYORIN PHARMACEUTICAL CO., LTD., priority 2014, published 2017).
Like-named read-outs stand apart in the source and are kept apart here.

What was measured:
PCAF = biological target: T1, PCAF (Homo sapiens, UniProt Q92831); experiment: Bromodomain binding assay: PCAF
T1 construct: made in house; host or cells: E. coli host derived from the BL21 strain (T7 phage lysate)
Procedure: (§1) T7 phage strains displaying bromodomains were grown in parallel in 24-well blocks in an E. coli host derived from the BL21 strain. E. coli were grown to log-phase and infected with T7 phage from a frozen stock (multiplicity of infection=0.4) and incubated with shaking at 32° C. until lysis (90-150 minutes). The lysates were centrifuged (5,000×g) and filtered (0.2 μm) to remove cell debris. […] The liganded beads were blocked with excess biotin and washed with blocking buffer (SeaBlock (Pierce), 1% BSA, 0.05 Tween 20, 1 mM DTT) to remove unbound ligand and to reduce non-specific phage binding. […] Test compounds (T62 and 46) were prepared as 1000× stocks in 100% DMSO and subsequently diluted 1:10 in monoethylene glycol (MEG) to create stocks at 100× the screening concentration (resulting stock solution is 10% DMSO/90% MEG). The compounds were then diluted directly into the assays such that the final concentration of DMSO and MEG were 0.1% and 0.9%, respectively. All reactions were performed in polystyrene 96-well plates in a final volume of 0.135 ml. […] The bromodomain concentration in the eluates was measured by qPCR. Compounds were assayed for binding activity against a panel of 40 bromodomain-containing proteins.

BRDT = biological target: T2, BRDT (Homo sapiens, UniProt Q58F21); experiment: Bromodomain binding assay: BRDT
T2 construct: read out by qPCR of the phage DNA
Procedure: as §1

BAZ2B = biological target: T3, BAZ2B (Homo sapiens, UniProt Q9UIF8); experiment: Bromodomain binding assay: BAZ2B
T3 construct: T7 phage strains displaying bromodomains were grown in parallel; made in house; host or cells: E. coli host derived from BL21, infected with T7 phage
T3 sequence (Q9UIF8 2060-2164 limits assumed, species assumed): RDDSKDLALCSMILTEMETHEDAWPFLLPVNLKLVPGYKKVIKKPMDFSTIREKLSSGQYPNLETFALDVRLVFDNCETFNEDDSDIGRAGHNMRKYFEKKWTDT
Procedure: as §1

[1] = biological target: T4, panel of 40 bromodomain-containing proteins (Homo sapiens, UniProt Q92793); experiment: Bromodomain binding assay (T7 phage, qPCR): further proteins of the panel; settings: CREBBP
T4 construct: T7 phage strains displaying bromodomains were grown in parallel; made in house; host or cells: E. coli host derived from BL21, infected with T7 phage
T4 sequence (Q92793 1081-1197): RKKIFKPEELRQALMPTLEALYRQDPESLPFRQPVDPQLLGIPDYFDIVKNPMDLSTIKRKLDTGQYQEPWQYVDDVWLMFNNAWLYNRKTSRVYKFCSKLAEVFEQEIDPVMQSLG
Procedure: as §1

[2] = biological target: T5, panel of 40 bromodomain-containing proteins (Homo sapiens, UniProt Q09472); experiment: as above; settings: EP300
T5 construct: T7 phage strains displaying bromodomains were grown in parallel; made in house; host or cells: E. coli host derived from BL21, infected with T7 phage
T5 sequence (Q09472 1045-1161): as the sequence (Q92793 1081-1197) above, with R1K, N51S, V77I, F97Y, A102S counted along it
Procedure: as §1

BRD9 = biological target: T6, BRD9 (Homo sapiens, UniProt Q9H8M2); experiment: Bromodomain binding assay: BRD9
T6 construct: T7 phage strains displaying bromodomains were grown in parallel; made in house; host or cells: E. coli host derived from BL21, infected with T7 phage
T6 sequence (Q9H8M2 136-240 limits assumed, species assumed): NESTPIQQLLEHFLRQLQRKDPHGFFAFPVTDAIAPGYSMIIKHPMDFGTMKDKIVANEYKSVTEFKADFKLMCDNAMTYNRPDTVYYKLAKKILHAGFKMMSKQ
Procedure: as §1

ATAD2A = biological target: T7, ATAD2A (Homo sapiens, UniProt Q6PL18); experiment: Bromodomain binding assay: ATAD2A
T7 construct: T7 phage strains displaying bromodomains were grown in parallel; made in house; host or cells: E. coli host derived from BL21, infected with T7 phage
T7 sequence (Q6PL18 980-1092 limits assumed): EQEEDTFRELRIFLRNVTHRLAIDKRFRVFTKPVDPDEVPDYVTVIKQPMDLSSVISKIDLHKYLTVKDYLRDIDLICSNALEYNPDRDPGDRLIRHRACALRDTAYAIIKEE
Procedure: as §1

BRPF3 = biological target: T8, BRPF3 (Homo sapiens, UniProt Q9ULD4); experiment: Bromodomain binding assay: BRPF3
T8 construct: T7 phage strains displaying bromodomains were grown in parallel; made in house; host or cells: E. coli host derived from BL21, infected with T7 phage
T8 sequence (Q9ULD4 589-693 limits assumed, species assumed): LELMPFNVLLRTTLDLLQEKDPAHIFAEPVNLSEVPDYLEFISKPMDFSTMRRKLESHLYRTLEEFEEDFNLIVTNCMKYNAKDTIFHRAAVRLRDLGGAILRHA
Procedure: as §1

[3] = tested on: Asthmatic lung fibroblasts; experiment: TGF-β-induced fibrotic response (α-SMA expression) in asthmatic lung fibroblasts; format: cell-based; settings: Homo sapiens, Fibroblast; 2 ng/ml TGF-β1, 48 h; Western blot; read-out: Inhibition of α-SMA expression, EC50 (μM), Asthmatic lung fibroblasts
Procedure: Nontransformed, human fetal lung fibroblasts (HFL-1) were obtained from ATCC (Manassas, Va.) and maintained in F12K media containing 10% (v/v) charcoal-dextran treated, heat inactivated FBS (Omega Scientific, Tarzana, Calif.). Primary lung fibroblasts isolated from a patient diagnosed with asthma were obtained from Lonza (Allendale, N.J.) and maintained in FGM-2 fibroblast growth medium (Lonza). Cells were seeded at a density to provide 50-60% confluence after an overnight incubation at 37° C. in a humidified atmosphere at 5% CO2. […] Protein content was determined using the Bio-Rad Dc Protein kit (Bio-Rad Laboratories, Hercules, Calif.), and normalized prior to adding an equal volume of 2× Laemmli sample buffer (Sigma). Proteins in the whole cell lysates were resolved via SDS-PAGE gel electrophoresis, and α-SMA was detected via Western blot analysis using a rabbit anti-human α-SMA polyclonal antibody (Abcam, Cambridge, Mass.). α-SMA signal was normalized to the signal of β-actin as detected using mouse anti-human […] antibody (Cell Signaling Technology). DyLight 680 and 800 conjugated secondary antibodies were used and the infrared signals were detected using the Odyssey Imaging System (LI-COR Biotechnology, Lincoln, Nebr.).

[4] = tested on: diseased primary human synovial fibroblasts; experiment: Cytokine response by primary human synovial fibroblasts stimulated with IL-17A, TNF-α or both; format: cell-based; settings: Fibroblast, 48 h
Procedure: Primary synovial fibroblasts isolated from the knee of a patient diagnosed with rheumatoid arthritis/osteoarthritis were obtained from Asterand (Detroit, Mich.) and maintained in FGM-2 fibroblast growth medium (Lonza, Allendale, N.J.). Cells were seeded at approximately 1.6e4 cells/ml and incubated at 37° C. in a humidified atmosphere at 5% CO2 until the cells reached ˜90% confluence. Cells were pre-treated with the test compounds (10 μM down by ⅕ in a 4-point serial dilution series) for 1 h at 37° C. in a humidified atmosphere at 5% CO2. DMSO at a final concentration of 0.1% served as the non-inhibited control. […] Cells were stimulated with 10 ng/ml human recombinant IL-17A (eBioscience, San Diego, Calif.), 10 ng/ml TNF-α, (Cell Signaling Technology, Danvers, Mass.) or both, for 48 h. Supernatant was then collected and analyzed for cytokine concentrations using the Bio-Plex Pro Human Cytokine 17-Plex Panel supplemented with RANTES and VEGF Singleplex analytes (Bio-Rad Laboratories, Hercules, Calif.) according to the manufacturer's instructions. Magnetic beads were measured on the Bio-Plex MAGPIX multiplex reader instrument using the accompanying xPONENT 4.2 acquisition software (Bio-Rad Laboratories). Data were analyzed via the Bio-Plex Manager software v6.1 (Bio-Rad Laboratories).

[5] = +Both IL-17A + TNF-α, read-out: EC50 (μM), G-CSF
[6] = +Both IL-17A + TNF-α, read-out: EC50 (μM), IL-6
[7] = +Both IL-17A + TNF-α, read-out: EC50 (μM), IL-8
[8] = +Both IL-17A + TNF-α, read-out: EC50 (μM), RANTES
[9] = +IL-17A 10 ng/ml, read-out: EC50 (μM), G-CSF
[10] = +IL-17A 10 ng/ml, read-out: EC50 (μM), IL-6
[11] = +IL-17A 10 ng/ml, read-out: EC50 (μM), IL-8
[12] = +IL-17A 10 ng/ml, read-out: EC50 (μM), RANTES
[13] = +TNF-α 10 ng/ml, read-out: EC50 (μM), G-CSF
[14] = +TNF-α 10 ng/ml, read-out: EC50 (μM), IL-6
[15] = +TNF-α 10 ng/ml, read-out: EC50 (μM), IL-8
[16] = +TNF-α 10 ng/ml, read-out: EC50 (μM), RANTES

T1 sequence (Q92831 723-827 limits assumed): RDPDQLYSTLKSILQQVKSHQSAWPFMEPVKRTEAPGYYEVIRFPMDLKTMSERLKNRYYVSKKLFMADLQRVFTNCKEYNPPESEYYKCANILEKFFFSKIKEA

Row | Kd (PCAF) [nM] | Kd (BRDT) [nM] | Kd (BAZ2B) [nM] | Kd [1] [nM] | Kd [2] [nM] | Kd (BRD9) [nM] | Kd (ATAD2A) [nM] | Kd (BRPF3) [nM] | SMILES | EC50 [3] [µM] | EC50 [4, 5] [µM] | EC50 [4, 6] [µM] | EC50 [4, 7] [µM] | EC50 [4, 8] [µM] | EC50 [4, 9] [µM] | EC50 [4, 10] [µM] | EC50 [4, 11] [µM] | EC50 [4, 12] [µM] | EC50 [4, 13] [µM] | EC50 [4, 14] [µM] | EC50 [4, 15] [µM] | further results
1 | > 20000 | 169 | > 20000 | 3300 | 7500 | > 20000 | > 20000 | > 20000 | CCOc1cc(C(=O)N2CCC(N3CCCC3)CC2)ccc1Nc1cc2c(cn1)N(C)C(=O)c1ccccc1N2C [Compound 46, 3-(2-Ethoxy-4-(4-(pyrrolidin-1-yl)piperidine-1-carbonyl)phenylamino)-5,11-dimethyl-5H-benzo[e]pyrido[3,4-b][1,4]diazepin-10(11H)-one] |  |  |  |  |  |  |  |  |  |  |  |  | 
2 |  |  |  |  |  |  |  |  | CCOc1cc(C(=O)N2CCC(N3CCN(C)CC3)CC2)ccc1Nc1cc2c(cn1)N(C)C(=O)c1ccccc1N2C [Compound 61] | 3.69 | > 10 | > 10 | > 10 | 1.35 | 2.59 | 1.67 | 0.87 | > 10 | 1.27 | 1.05 | 4.51 | EC50 [4, 16]: 2.78 µM
3 |  |  |  |  |  |  |  |  | CCOc1cc(C(=O)N2CC[C@@H](N(C)C)C2)ccc1Nc1cc2c(cn1)N(C)C(=O)c1ccccc1N2C [Compound 115] | 1.37 | > 10 | > 10 | > 10 | 1.88 | 2.67 | 1.04 | 0.39 | > 10 | 1.25 | 1.71 | > 10 | EC50 [4, 16]: > 10 µM
4 | > 20000 | 397 | > 20000 | 1200 | 1100 | > 20000 | > 20000 | > 20000 | CCOc1cc(C(=O)N[C@H]2CC[C@H](O)CC2)ccc1Nc1cc2c(cn1)N(C)C(=O)c1ccccc1N2C [Compound T62] |  |  |  |  |  |  |  |  |  |  |  |  | 
